In publication PMC10046369, “Low-Affinity/High-Selectivity Dopamine Transport Inhibition Sufficient to Rescue Cognitive Functions in the Aging Rat” (Biomolecules, 2023):

Legend:
Test in all cases: cell-based
Parameters in all cases: functional GPCR antagonist screen (Eurofins Cerep), percent inhibition of control agonist response
Details in all cases: antagonist effect, against control agonist; read-out: % Inhibition of Control Agonist Response, Mean
MC5 (h) = target: T1, MC5 (h) (Homo sapiens, UniProt P33032)
T1 construct: gene MC5R

NK2 (h) = target: T2, NK2 (h) (Homo sapiens, UniProt P21452)
T2 construct: gene TACR2
T2 sequence (P21452 whole entry): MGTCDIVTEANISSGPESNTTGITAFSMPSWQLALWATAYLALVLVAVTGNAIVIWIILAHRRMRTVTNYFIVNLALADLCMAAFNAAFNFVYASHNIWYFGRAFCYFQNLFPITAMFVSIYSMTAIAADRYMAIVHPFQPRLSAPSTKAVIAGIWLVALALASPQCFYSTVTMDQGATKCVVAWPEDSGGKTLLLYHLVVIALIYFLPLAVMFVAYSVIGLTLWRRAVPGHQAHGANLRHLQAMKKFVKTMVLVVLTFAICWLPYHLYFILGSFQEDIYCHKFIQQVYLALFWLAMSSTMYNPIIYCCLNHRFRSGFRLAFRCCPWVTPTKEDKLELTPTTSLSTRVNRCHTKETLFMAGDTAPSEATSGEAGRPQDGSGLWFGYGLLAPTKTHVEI

NPS (h) = target: T3, NPS (h) (Homo sapiens, UniProt Q6W5P4)
T3 construct: gene NPSR1

M5 (h) = target: T4, M5 (h) (Homo sapiens, UniProt P08912)
T4 construct: gene CHRM5
T4 sequence (P08912 whole entry): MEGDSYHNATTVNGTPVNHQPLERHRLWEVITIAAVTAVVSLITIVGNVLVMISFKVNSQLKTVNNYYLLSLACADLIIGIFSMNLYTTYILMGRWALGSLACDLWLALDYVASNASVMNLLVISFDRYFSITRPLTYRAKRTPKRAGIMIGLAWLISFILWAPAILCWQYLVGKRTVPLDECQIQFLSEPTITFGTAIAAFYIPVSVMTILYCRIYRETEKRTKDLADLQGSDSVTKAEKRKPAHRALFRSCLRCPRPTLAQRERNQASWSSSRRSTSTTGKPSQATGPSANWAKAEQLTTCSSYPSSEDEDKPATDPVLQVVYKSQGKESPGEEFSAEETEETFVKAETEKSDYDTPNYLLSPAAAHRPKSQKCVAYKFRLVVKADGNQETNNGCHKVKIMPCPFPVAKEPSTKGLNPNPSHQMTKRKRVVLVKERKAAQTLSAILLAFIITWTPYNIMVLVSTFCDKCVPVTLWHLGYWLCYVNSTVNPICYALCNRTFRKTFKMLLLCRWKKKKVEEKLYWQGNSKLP

EP2 (h) = target: T5, EP2 (h) (Homo sapiens, UniProt P43116)
T5 construct: gene PTGER2
T5 sequence (P43116 whole entry): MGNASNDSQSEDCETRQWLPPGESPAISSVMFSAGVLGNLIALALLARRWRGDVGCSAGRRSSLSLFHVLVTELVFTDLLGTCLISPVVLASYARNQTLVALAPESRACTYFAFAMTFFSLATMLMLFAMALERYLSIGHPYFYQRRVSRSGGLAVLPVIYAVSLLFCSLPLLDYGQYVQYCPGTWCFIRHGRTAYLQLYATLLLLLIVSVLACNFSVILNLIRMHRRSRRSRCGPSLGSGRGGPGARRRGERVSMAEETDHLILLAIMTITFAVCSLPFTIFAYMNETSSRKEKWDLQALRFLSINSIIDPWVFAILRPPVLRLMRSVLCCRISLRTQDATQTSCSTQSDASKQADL

M2 (h) = target: T6, M2 (h) (Homo sapiens, UniProt P08172)
T6 construct: gene CHRM2

NTS2 (NT2) (h) = target: T7, NTS2 (NT2) (h) (Homo sapiens, UniProt O95665)
T7 construct: gene NTSR2

MrgD (h) = target: T8, MrgD (h) (Homo sapiens, UniProt Q8TDS7)
T8 construct: gene MRGPRD

LPA3 (h) = target: T9, LPA3 (h) (Homo sapiens, UniProt Q9UBY5)
T9 construct: gene LPAR3
T9 sequence (Q9UBY5 whole entry): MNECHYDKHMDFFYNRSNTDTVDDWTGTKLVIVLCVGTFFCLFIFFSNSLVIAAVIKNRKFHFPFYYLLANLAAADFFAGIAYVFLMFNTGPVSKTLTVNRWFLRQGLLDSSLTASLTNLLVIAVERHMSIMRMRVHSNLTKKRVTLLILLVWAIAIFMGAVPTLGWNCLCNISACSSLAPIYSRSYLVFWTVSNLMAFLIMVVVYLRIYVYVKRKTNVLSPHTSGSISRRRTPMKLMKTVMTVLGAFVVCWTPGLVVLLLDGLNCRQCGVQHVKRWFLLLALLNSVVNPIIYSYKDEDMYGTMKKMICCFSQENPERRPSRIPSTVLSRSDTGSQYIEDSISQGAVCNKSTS

NK3 (h) = target: T10, NK3 (h) (Homo sapiens, UniProt P29371)
T10 construct: gene TACR3

EP1 (h) = target: T11, EP1 (h) (Homo sapiens, UniProt P34995)
T11 construct: gene PTGER1

MRGX1 / MRGPRX1 (h) = MRGX1 / MRGPRX1 (h) (Homo sapiens, UniProt Q96LB2)
MRGX1 / MRGPRX1 (h), sequence (Q96LB2 whole entry): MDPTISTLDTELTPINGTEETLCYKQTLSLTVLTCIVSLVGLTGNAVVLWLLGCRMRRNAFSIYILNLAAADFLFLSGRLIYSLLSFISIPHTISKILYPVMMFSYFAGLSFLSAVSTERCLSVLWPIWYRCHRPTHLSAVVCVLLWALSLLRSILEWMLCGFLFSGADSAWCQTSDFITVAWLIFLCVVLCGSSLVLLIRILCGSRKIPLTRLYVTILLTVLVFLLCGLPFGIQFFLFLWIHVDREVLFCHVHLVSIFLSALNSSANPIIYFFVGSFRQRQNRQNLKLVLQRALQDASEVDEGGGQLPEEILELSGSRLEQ

MC4 (h) = target: T12, MC4 (h) (Homo sapiens, UniProt P32245)
T12 construct: gene MC4R
T12 sequence (P32245 whole entry): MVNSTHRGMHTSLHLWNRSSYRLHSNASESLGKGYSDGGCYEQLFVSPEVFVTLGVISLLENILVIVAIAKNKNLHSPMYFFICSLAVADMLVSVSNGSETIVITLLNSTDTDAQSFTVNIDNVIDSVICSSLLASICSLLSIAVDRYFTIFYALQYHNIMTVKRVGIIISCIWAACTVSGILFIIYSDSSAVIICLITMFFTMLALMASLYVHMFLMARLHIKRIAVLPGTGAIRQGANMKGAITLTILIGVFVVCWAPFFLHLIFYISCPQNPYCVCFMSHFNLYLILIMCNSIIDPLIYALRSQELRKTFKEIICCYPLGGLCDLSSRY

M3 (h) = target: T13, M3 (h) (Homo sapiens, UniProt P20309)
T13 construct: gene CHRM3

NTS1 (NT1) (h) = target: T14, NTS1 (NT1) (h) (Homo sapiens, UniProt P30989)
T14 construct: gene NTSR1
T14 sequence (P30989 whole entry): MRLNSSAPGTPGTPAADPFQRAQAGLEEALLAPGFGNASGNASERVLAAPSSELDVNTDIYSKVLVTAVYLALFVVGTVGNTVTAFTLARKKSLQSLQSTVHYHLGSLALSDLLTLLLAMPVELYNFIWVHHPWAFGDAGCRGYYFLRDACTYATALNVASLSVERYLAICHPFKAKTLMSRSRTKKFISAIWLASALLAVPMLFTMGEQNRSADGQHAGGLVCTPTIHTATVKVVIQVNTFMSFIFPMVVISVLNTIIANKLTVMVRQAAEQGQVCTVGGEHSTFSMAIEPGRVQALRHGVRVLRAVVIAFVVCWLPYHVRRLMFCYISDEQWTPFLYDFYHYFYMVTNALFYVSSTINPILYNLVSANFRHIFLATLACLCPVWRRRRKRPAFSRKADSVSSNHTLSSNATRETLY

S1P5 (h) = target: T15, S1P5 (h) (Homo sapiens, UniProt Q9H228)
T15 construct: gene S1PR5

PK2 (h) = target: T16, PK2 (h) (Homo sapiens, UniProt Q8NFJ6)
T16 construct: gene PROKR2
T16 sequence (Q8NFJ6 whole entry): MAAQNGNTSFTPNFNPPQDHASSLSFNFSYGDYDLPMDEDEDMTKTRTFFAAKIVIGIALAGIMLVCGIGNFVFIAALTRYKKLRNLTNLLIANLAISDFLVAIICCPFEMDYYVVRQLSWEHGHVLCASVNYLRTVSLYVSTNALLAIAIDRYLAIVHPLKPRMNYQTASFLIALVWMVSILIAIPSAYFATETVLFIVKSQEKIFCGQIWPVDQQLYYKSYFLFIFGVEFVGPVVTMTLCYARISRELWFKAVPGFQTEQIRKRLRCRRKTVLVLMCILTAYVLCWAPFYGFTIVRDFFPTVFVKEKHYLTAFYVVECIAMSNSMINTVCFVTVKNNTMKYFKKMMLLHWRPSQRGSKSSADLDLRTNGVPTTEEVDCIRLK

S1P4 (h) = target: T17, S1P4 (h) (Homo sapiens, UniProt O95977)
T17 construct: gene S1PR4

TP (TXA2/PGH2) (h) = target: T18, TP (TXA2/PGH2) (h) (Homo sapiens, UniProt P21731)
T18 construct: gene TBXA2R

EP3 (h) = target: T19, EP3 (h) (Homo sapiens, UniProt P43115)
T19 construct: gene PTGER3
T19 sequence (P43115 whole entry): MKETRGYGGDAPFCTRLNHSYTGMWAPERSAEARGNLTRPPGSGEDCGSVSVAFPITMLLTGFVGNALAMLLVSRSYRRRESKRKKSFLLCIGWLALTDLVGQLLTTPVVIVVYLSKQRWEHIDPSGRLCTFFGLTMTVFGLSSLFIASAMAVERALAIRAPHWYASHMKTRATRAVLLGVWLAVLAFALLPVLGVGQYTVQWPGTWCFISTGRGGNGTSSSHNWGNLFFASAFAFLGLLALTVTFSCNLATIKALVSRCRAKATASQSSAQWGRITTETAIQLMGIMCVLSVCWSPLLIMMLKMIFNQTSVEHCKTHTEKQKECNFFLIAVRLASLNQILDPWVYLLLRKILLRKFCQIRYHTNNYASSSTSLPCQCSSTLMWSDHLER

M4 (h) = target: T20, M4 (h) (Homo sapiens, UniProt P08173)
T20 construct: gene CHRM4
T20 sequence (P08173 whole entry): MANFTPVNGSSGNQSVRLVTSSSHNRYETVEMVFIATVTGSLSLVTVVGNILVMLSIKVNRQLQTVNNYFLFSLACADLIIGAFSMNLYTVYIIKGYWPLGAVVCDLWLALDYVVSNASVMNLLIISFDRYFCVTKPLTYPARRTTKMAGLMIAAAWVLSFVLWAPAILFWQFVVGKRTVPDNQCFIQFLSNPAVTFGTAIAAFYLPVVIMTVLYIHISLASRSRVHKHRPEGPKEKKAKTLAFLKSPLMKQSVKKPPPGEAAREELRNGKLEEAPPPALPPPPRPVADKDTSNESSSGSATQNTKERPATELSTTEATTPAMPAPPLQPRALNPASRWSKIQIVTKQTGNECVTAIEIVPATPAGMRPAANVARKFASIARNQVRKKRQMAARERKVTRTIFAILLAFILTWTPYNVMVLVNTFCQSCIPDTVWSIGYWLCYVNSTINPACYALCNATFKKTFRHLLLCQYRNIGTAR

MRGX2 / MGRPLX2 (h) = target: T21, MRGX2 / MGRPLX2 (h) (Homo sapiens, UniProt Q96LB1)
T21 construct: gene MRGPRX2
T21 sequence (Q96LB1 whole entry): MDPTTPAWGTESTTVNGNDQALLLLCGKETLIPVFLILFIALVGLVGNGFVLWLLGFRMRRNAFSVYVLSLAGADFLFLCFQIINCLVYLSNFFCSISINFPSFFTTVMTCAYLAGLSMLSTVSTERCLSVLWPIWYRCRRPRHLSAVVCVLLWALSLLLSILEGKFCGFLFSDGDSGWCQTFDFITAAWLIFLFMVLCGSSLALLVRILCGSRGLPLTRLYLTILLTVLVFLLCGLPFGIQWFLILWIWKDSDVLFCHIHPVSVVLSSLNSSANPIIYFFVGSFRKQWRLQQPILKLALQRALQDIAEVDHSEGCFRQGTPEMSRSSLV

PK1 (h) = target: T22, PK1 (h) (Homo sapiens, UniProt Q8TCW9)
T22 construct: gene PROKR1
T22 sequence (Q8TCW9 whole entry): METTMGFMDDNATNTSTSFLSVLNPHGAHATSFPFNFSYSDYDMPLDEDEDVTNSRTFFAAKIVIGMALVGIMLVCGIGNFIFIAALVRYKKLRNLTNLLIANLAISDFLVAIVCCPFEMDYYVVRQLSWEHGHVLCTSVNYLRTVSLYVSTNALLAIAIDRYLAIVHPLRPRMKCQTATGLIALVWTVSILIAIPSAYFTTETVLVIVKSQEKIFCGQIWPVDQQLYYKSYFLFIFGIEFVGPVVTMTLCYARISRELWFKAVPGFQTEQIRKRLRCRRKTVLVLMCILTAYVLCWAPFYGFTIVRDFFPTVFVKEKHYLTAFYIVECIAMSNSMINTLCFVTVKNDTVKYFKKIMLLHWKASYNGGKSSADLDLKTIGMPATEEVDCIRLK

δ (DOP) (h) = target: T23, δ (DOP) (h) (Homo sapiens, UniProt P41143)
T23 construct: gene OPRD1

**Q.** Which results are given for `[O-][S@@+](Cc1cncs1)C(c1ccccc1)c1ccccc1` [S-CE-123, (S)-5-((Benzhydrylsulfinyl)Methyl)Thiazole]?
**A.** inhibition at 2.8 µM (MC5 (h)): -8.9%; inhibition at 2.8 µM (NK2 (h)): -0.8%; inhibition at 2.8 µM (NPS (h)): -14.3%; inhibition at 2.8 µM (M5 (h)): -5.9%; inhibition at 2.8 µM (EP2 (h)): 0.7%; inhibition at 2.8 µM (M2 (h)): -9.2%; inhibition at 2.8 µM (NTS2 (NT2) (h)): 22.9%; inhibition at 2.8 µM (MrgD (h)): 30%; inhibition at 2.8 µM (LPA3 (h)): -34.4%; inhibition at 2.8 µM (NK3 (h)): -5.1%; inhibition at 2.8 µM (EP1 (h)): -11.9%; inhibition at 2.8 µM (MRGX1 / MRGPRX1 (h)): 4.9%; inhibition at 2.8 µM (MC4 (h)): 2.3%; inhibition at 2.8 µM (M3 (h)): 0.8%; inhibition at 2.8 µM (NTS1 (NT1) (h)): -10%; inhibition at 2.8 µM (S1P5 (h)): 3.7%; inhibition at 2.8 µM (PK2 (h)): 7.3%; inhibition at 2.8 µM (S1P4 (h)): -14.6%; inhibition at 2.8 µM (TP (TXA2/PGH2) (h)): 2.5%; inhibition at 2.8 µM (EP3 (h)): -30.8%; inhibition at 2.8 µM (M4 (h)): -8.5%; inhibition at 2.8 µM (MRGX2 / MGRPLX2 (h)): 7.1%; inhibition at 2.8 µM (PK1 (h)): 2.5%; inhibition at 2.8 µM (δ (DOP) (h)): -2.8%
